Data on 3 molecules can be found in patent US20260256909A1, “COMBINATION OF A BTN3A ACTIVATING ANTIBODY, A BCL2 INHIBITOR AND HYPOMETHYLATING AGENT FOR USE IN TREATING CANCER” (Imcheck Therapeutics, priority 2022, published 2026).

A word on the EC50: it is the midpoint of the concentration-response curve.

Where two headings read alike, the source gives them in different places.

What all share (assay type): cell-based, human
Assay [1] has as its system Vγ9Vδ2 T cells. As to the kind of experiment: Survival of Vγ9Vδ2 T cells in HD-PBMC (Caspase3/7 and dead cell marker, flow cytometry). The conditions noted are these: HD-PBMC, 48 h; for CC50: in presence of isotype control (hIgG1S 1 μg/mL). The protocol: The effect of ICT01 on the survival of Vγ9Vδ2 T cells upon treatment with Bcl-2 family member inhibitors was assessed in Peripheral Blood Mononuclear Cells from Healthy Donors (HD-PBMC) using the apoptotic marker Caspase3/7 and a dead cell marker in flow cytometry analysis.
Peripheral Blood Mononuclear Cells (PBMC) were isolated by Ficoll density gradient centrifugation of peripheral blood (EDTA-buffy coats) from healthy donors (HD, n=4-6), cultured in PBMC medium (RPMI 1640 Medium supplemented with 10% Fetal Bovine Serum (FBS), 1% Penicillin/Streptomycin and 1 mM Sodium Pyruvate) and treated with ICT01 or its isotype control (hIgG1S) used at 1 μg/mL in the presence or absence of increasing concentrations of Venetoclax (0-0.1 μM), 5-Azacytidine (0-0.4 μM) or the combination, or ABT-737 (0-1.875 μM), Navitoclax (0-1.875 μM) or MIK665 (0-1.875 μM). Cells were harvested on day 2, centrifuged at 1800 rpm for 5 minutes and then incubated 10 minutes at room temperature (RT) with 25 μl of FcR blocking reagent (Miltenyi Biotec) before adding 25 μL of the following antibody mix prepared in PBS+2% FBS+2 mM EDTA (FACS buffer): anti-CD4-BUV395, CD56-BV421, Vd2-PE, CD3-PE-CF594 and CD8-A700 antibodies for the identification of immune subsets, anti-CD25-BV650 and CD69-APC antibodies were added to monitor activation status of Vγ9Vδ2 T cells, and a viability marker (LIVE/DEAD™ Fixable Dead Cell Stain) was added to distinguish live from dead cells. Cells were incubated 20 minutes at room temperature (RT) and washed 2 times with FACS buffer. A Caspase3/7 Green detection reagent (ThermoFisher) was added to determine apoptosis and cells were incubated for 30 minutes at RT before flow cytometry analysis.
In a similar experiment, freshly isolated PBMC were stimulated with ICT01 or its isotype control hIgG1S for 1 day prior to a 2 day-treatment with Venetoclax (FIG. 3a). The number of live Vγ9Vδ2 T cells was assessed by flow cytometry at the end of the incubation time.
On the technique in general: Flow cytometry measures light scatter and fluorescence of single cells or particles in a stream.

Assay [2] relates to KG1a AML cells. In words: Killing of KG1a AML cells in co-culture with HD-PBMC (flow cytometry). The conditions noted are these: for KG1a cell death / reduction of living KG1a cells as compared to control: alone or with ICT01 0.1 μg/mL, HD-PBMC ratio 5:1, 2 days. On the procedure:
A) Sensitivity of KG1a cell line to Venetoclax, 5-Azacytidine or the combination. […] N=2 experiments. B) Mean±SEM relative number of Live KG1a AML cells monitored by flow cytometry after 3 days of co-culture with HD-PBMC (E:T ratio 25:1) treated with ICT01 (black) or its isotype control (hIgG1S, light grey) at 0.1 or 1 μg/mL. N=6, each dot represents one healthy donor. C) Schematic representation of treatment schedule for killing of KG1a AML cells by HD-PBMC. D) Relative number of Live KG1a AML cells (Mean±SEM) (left) and Frequency of Live KG1a AML cell relative to no Venetoclax or 5-Azacytidine treatment (Mean±SEM) (right) after 3 days of co-culture with HD-PBMC in presence of ICT01 (black) or its isotype control (hIgG1S, light grey) and treatment with Venetoclax, 5-Azacytidine or the combination. N=6, each dot represents one healthy donor, * p<0.05, Wilcoxon test.
KG1a cells were co-cultured with HD-PBMC at ratio 5:1 in presence of m20.1 or isotype control (0.1 μg/mL). After 6 hrs, indicated concentrations of Venetoclax, 5-Azacytidine or the combination were added to the culture. Relative number of live KG1a was monitored after 48 hrs by flow cytometry. […] N=6, each dot represents one healthy donor, * p<0.05, ** p<0.01, *** p<0.001, **** p<0.0001, 2 way ANOVA.
(§1) KG1a or MOLM14 AML cell lines were co-cultured with HD-PBMC at ratio 5:1 in presence of ICT01 or isotype control (0.1 μg/mL). After 6 hrs, indicated concentrations of ABT-737, Navitoclax or MIK665 were added to the culture. A) Relative numbers of live KG1a cells (Mean±SEM) after 2 days of co-culture with HD-PBMC in presence of ICT01 (black) or its isotype control hIgG1S (light grey) and treatment with indicated concentration of ABT-737. B) Relative numbers of live KG1a cells (Mean±SEM) after 2 days of co-culture with HD-PBMC in presence of ICT01 (black) or its isotype control hIgG1S (light grey) and treatment with indicated concentration of Navitoclax. C) Relative numbers of live MOLM14 cells (Mean±SEM) after 2 days of co-culture with HD-PBMC in presence of ICT01 (black) or its isotype control hIgG1S (light grey) and treatment with indicated concentration of MIK665. N=6 HD, each dot represents one healthy donor, * p<0.05, 2 way ANOVA.
The effect of Venetoclax and 5-Azacytidine on anti-BTN3A antibodies-induced killing of AML cell lines by Vγ9Vδ2 T cells was assessed by measuring the relative number of surviving target cells in a HD-PBMC-AML cell co-culture using flow cytometry.
Then, KG1a AML cells were stained with CellTrace CFSE Proliferation dye (ThermoFisher) to allow for specific detection by flow cytometry, counted, put into a co-culture with thawed HD-PBMC and treated with the anti-BTN3A mAbs ICT01 or m20.1 or their respective isotype controls (hIgG1S or mIgG1) in PBMC medium (RPMI 1640 Medium supplemented with 10% Fetal Bovine Serum (FBS) and 1 mM Sodium Pyruvate). On day one of culture, increasing concentrations of Venetoclax (0-0.4 μM), 5-Azacytidine (0-0.4 μM) or the combination were added. Cells were harvested on day 3 of co-culture, centrifuged at 1800 rpm for 5 minutes and then incubated 10 minutes at room temperature (RT) with 25 μl of FcR blocking reagent (Miltenyi Biotec) before adding 25 μL of the following antibody mix prepared in PBS+2% FBS+2 mM EDTA (FACS buffer): anti-CD56-BV421, CD19-BV421, CD14-BV785, Tyb-PE and CD3-AF700 antibodies for the identification of immune subsets, and a viability marker (LIVE/DEAD™ Fixable Dead Cell Stain) was added to distinguish live and dead cells. Cells were incubated 20 minutes at room temperature, washed once in FACS buffer and once in AnnexinV staining buffer. An AnnexinV-APC probe mixed with CountBright Absolute Counting Beads (Invitrogen) was added to determine apoptosis and relative cell numbers, followed by 15 minutes incubation at RT before flow cytometry analysis. […]

Assay [3] relates to MOLM14 cells. As to the kind of experiment: Killing of MOLM14 AML cells in co-culture with HD-PBMC (flow cytometry). The conditions noted are these: alone or with ICT01 0.1 μg/mL, HD-PBMC ratio 5:1, 2 days. The protocol:
as §1
The effect of the three Bcl-2 family member inhibitors ABT-737, Navitoclax and MIK665, on ICT01-induced killing of AML cell lines by Vγ9Vδ2 T cells was assessed by measuring the relative number of surviving target cells in a HD-PBMC-AML cells co-culture using flow cytometry.
For assays using ABT-737 or Navitoclax, KG1a cells were used. […] Therefore, MOLM14 cells, which express MCL-1, were used in killing assays assessing the activity of ICT01 combined with MIK665.

The mark [4] stands for this setting: in presence of ICT01 (1 μg/mL), read-out: EC50 of Vγ9Vδ2 T cell death.
Setting [5] is: Homo sapiens, T-cell, read-out: EC50 of Vγ9Vδ2 T cell death.
Where [6] appears, read: Homo sapiens, T-cell, inhibitor alone (FIG. 2a), read-out: EC50 of apoptosis and death of Vγ9Vδ2 T cells.
The mark [7] stands for this setting: Bcl-2 family inhibitor at 0.25 μM.
The mark [8] stands for this setting: Bcl-2 family inhibitor at 0.5 μM.

As for `CC1(C)CCC(c2ccc(Cl)cc2)=C(CN2CCN(c3ccc(C(=O)NS(=O)(=O)c4ccc(N[C@H](CCN5CCOCC5)CSc5ccccc5)c(S(=O)(=O)C(F)(F)F)c4)cc3)CC2)C1` [Navitoclax, 4-[4-[[2-(4-chlorophenyl)-5,5-dimethylcyclohexen-1-yl]methyl]piperazin-1-yl]-N-[4-[[(2R)-4-morpholin-4-yl-1-phenylsulfanylbutan-2-yl]amino]-3-(trifluoromethylsulfonyl)phenyl]sulfonylbenzamide], the values for the EC50 in assay [1] (setting [4]) and in assay [1] (setting [6]) were 200 nM and 160 nM, respectively. Moreover, in assay [1] (setting [5]), the CC50 turned out to be 160 nM. Moreover, the “KG1a cell death / reduction of living KG1a cells as compared to control” value is given as ~ 51% in assay [2] (setting [7]) and ~ 71% in assay [2] (setting [8]).
For `CN(C)CC[C@H](CSc1ccccc1)Nc1ccc(S(=O)(=O)NC(=O)c2ccc(N3CCN(Cc4ccccc4-c4ccc(Cl)cc4)CC3)cc2)cc1[N+](=O)[O-]` [ABT-737], the figures for the EC50 in assay [1] (setting [4]) and in assay [1] (setting [6]) were 460 nM and 240 nM, respectively. Moreover, the CC50 in assay [1] (setting [5]) was 230 nM. For the same molecule, the “KG1a cell death / reduction of living KG1a cells as compared to control” value is ~ 34% in assay [2] (setting [7]) and ~ 54% in assay [2] (setting [8]).
For `COc1ccccc1-c1nccc(COc2ccccc2C[C@@H](Oc2ncnc3sc(-c4ccc(F)cc4)c(-c4ccc(OCCN5CCN(C)CC5)c(Cl)c4C)c23)C(=O)O)n1` [MIK665, (R)-2-((5-(3-chloro-2-methyl-4-(2-(4-methylpiperazin-1-yl)ethoxy)phenyl)-6-(4-fluorophenyl)thieno[2,3-d]pyrimidin-4-yl)oxy)-3-(2-((2-(2-methoxyphenyl)pyrimidin-4-yl)methoxy)phenyl)propanoic acid], the 50% effective concentration (EC50) in assay [1] (setting [4]) was 780 nM; in assay [1] (setting [6]), 240 nM. In addition, the CC50 in assay [1] (setting [5]) came to 240 nM. Besides, the “cell death / reduction of living MOLM14 cells as compared to control” value is recorded as ~ 52% in assay [3] (MIK665 at 0.025 μM) and ~ 72% in assay [3] (MIK665 at 0.05 μM). In addition, the “sensitivity of KG1a to MIK665 treatment” value in assay [2] (cell line does not express MCL-1) is “completely resistant”.
